The text below walks through data of US12091425B2 (AMGEN INC., priority 2016, dated 2024).

The conditions of the series: rcm bond, 16-membered ring.

Like-named read-outs stand apart in the source and are kept apart here.

With “(1S,3′R,6′R,7′S,8′Z,12′S)-12′-((2R)-2-((tert-butyl(diphenyl)silyl)oxy)propyl)-6-chloro-7′-hydroxy-3,4-dihydro-2H,15′H-spiro[naphthalene-1,22′-[20]oxa[13]thia[1,14]diazatetracyclo[14.7.2.0^3,6.0^19,24]pentacosa[8,16,18,24]tetraen]-15′-one 13′,13′-dioxide or (1S,3′R,6′R,7′S,8′Z,12′R)-12′-((2R)-2-((tert-butyl(diphenyl)silyl)oxy)propyl)-6-chloro-7′-hydroxy-3,4-dihydro-2H,15′H-spiro[naphthalene-1,22′-[20]oxa[13]thia[1,14]diazatetracyclo[14.7.2.0^3,6.0^19,24]pentacosa[8,16,18,24]tetraen]-15′-one 13′,13′-dioxide”, the ring closure, isolated yield (Hoveyda-Grubbs II (10 mol%), DCM, 1.5 mM, 45.0 °C) came to 30%.

Where the note is “Hoveyda-Grubbs II, toluene, 2.4 mM, 101.0 °C”, “(1S,3′R,6′R,7′S,9′Z,12′S)-6-chloro-7′-hydroxy-12′-(trifluoromethyl)-3,4-dihydro-2H,15′H-spiro[naphthalene-1,22′-[20]oxa[13]thia[1,14]diazatetracyclo[14.7.2.0^3,6.0^19,24]pentacosa [9,16,18,24]tetraen]-15′-one 13′,13′-dioxide and [...] (1S,3′R,6′R,7′S,9′E,12′S)-6-chloro-7′-hydroxy-12′-(trifluoromethyl)-3,4-dihydro-2H,15′H-spiro[naphthalene-1,22′-[20]oxa[13]thia[1,14]diazatetracyclo[14.7.2.0^3,6.0^19,24]pentacosa [9,16,18,24]tetraen]-15′-one 13′,13′-dioxide and (1S,3′R,6′R,7′S,9′E,12′R)-6-chloro-7′-hydroxy-12′-(trifluoromethyl)-3,4-dihydro-2H,15′H-spiro[naphthalene-1,22′-[20]oxa[13]thia[1,14]diazatetracyclo[14.7.2.0^3,6.0^19,24]pentacosa [9,16,18,24]tetraen]-15′-one 13′,13′-dioxide” yielded a ring closure, isolated yield of 63%. On to `CN1CC=CCS(=O)(=O)NC(=O)c2ccc3c(c2)N(C[C@@H]2CC[C@H]2C1=O)C[C@@]1(CCCc2cc(Cl)ccc21)CO3` (single isomer, unassigned), for which, under “from C=CCN(C)C(=O)[C@@H]1CC[C@H]1CN1C[C@@]2(CCCc3cc(Cl)ccc32)COc2ccc(C(=O)NS(=O)(=O)CC=C)cc21, Hoveyda-Grubbs II, toluene, 1.0 mM, 1.5 h”, the ring closure, isolated yield is 48%. With `C[C@@H]1CC/C=C/[C@H](O)[C@]2(C)CC[C@H]2CN2C[C@@]3(CCCc4cc(Cl)ccc43)COc3ccc(cc32)C(=O)NS1(=O)=O`, for the setting “from C=CCC[C@@H](C)S(=O)(=O)NC(=O)c1ccc2c(c1)N(C[C@@H]1CC[C@@]1(C)[C@@H](O)C=C)C[C@@]1(CCCc3cc(Cl)ccc31)CO2, Hoveyda-Grubbs II, DCM, 2.0 mM, […]”, the ring closure, isolated yield turned out to be 12.4%. Under “Hoveyda-Grubbs II (20 mol%), DCM, 1.5 mM, 45.0 °C”, “(1S,3′R,6′R,7′S,8′E,12′R)-12′-((2S)-2-((tert-butyl(diphenyl)silyl)oxy)propyl)-6-chloro-7′-hydroxy-3,4-dihydro-2h,15′h-spiro[naphthalene-1,22′-[20]oxa[13]thia[1,14]diazatetracyclo[14.7.2.0^3,6.0^19,24]pentacosa[8,16,18,24]tetraen]-15′-one 13′,13′-dioxide] or (1S,3′R,6′R,7′S,8′E,12′S)-12′-((2S)-2-((tert-butyl(diphenyl)silyl)oxy)propyl)-6-chloro-7′-hydroxy-3,4-dihydro-2h,15′h-spiro[naphthalene-1,22′-[20]oxa[13]thia[1,14]diazatetracyclo[14.7.2.0^3,6.0^19,24]pentacosa[8,16,18,24]tetraen]-15′-one 13′,13′-dioxide” came in with a ring closure, isolated yield of 27%.
